This is an account of results in US11082386B2, “2′-fluoro-6′-methylene carbocyclic nucleosides and methods of treating viral infections” (UNIVERSITY OF GEORGIA RESEARCH FOUNDATION, INC., priority 2009, dated 2021).

Entries after “also recorded” stand apart in the source; their conditions may differ. Read-outs that look alike come from different tables or passages of the source.

The test system of series [1] is wild-type HBV. The series is described as follows: intracellular HBV DNA replication assay, wild type. Type of series: cell-based, Hepatitis B virus. How it is done: (§1) In view of the significance of lamivudine- and adefovir-resistant mutations in the clinical application of anti-HBV treatment, the synthesized nucleoside 15/18 was tested against HBV WT as well as lamivudine- and adefovir-resistant mutants.

For series [2], the system named is lamivudine-resistant mutants including rtM204V/I±rtL180M. Nature of the series: activity against lamivudine-resistant mutants relative to wild type. Type of series: cell-based, Hepatitis B virus. How it is done: as §1
For the next series, the system named is HBV mutant rtM204I. The series is described as follows: intracellular HBV DNA replication assay, rtM204I. Format: cell-based. The note with it: Hepatitis B virus. The method, then: as §1
Series [3] relates to HBV genotype C entecavir resistant clone (L180M+M204V+S202G). Nature of the series: anti-HBV activity against entecavir resistant clone in Huh7 cells. Type of series: cell-based, Hepatitis B virus. The note with it: for EC50: Hepatitis B virus, Huh-7; for antiviral potency against the entecavir mutant / IC50: Huh7 cells; for IC50: HBV genotype C entecavir resistant clone. From the text: (§2) A mono-phosphate prodrug can be useful not only to bypass the rate limiting initial phosphorylation step by the nucleoside kinase, thereby to increase the antiviral potency, but also it may potentially target the liver. Therefore, a phosphoramidite, compound 15P/18P was also synthesized.

Another series relates to HBV mutant rtM204V. The series is described as follows: intracellular HBV DNA replication assay, rtM204V. Format: cell-based. As to conditions: Hepatitis B virus. How it is done:
as §1

For series [4], the system named is HBV double mutant rtL180M/rtM204V. The series is described as follows: intracellular HBV DNA replication assay, double mutant. Format: cell-based, Hepatitis B virus. How it is done: as §1
The subject of series [5] is HBV adefovir mutant rtN236T. The series is described as follows: intracellular HBV DNA replication assay, adefovir mutant. Format: cell-based, Hepatitis B virus. How it is done: as §1
A further series has as its system HepG2 cells. The series is described as follows: mitochondrial toxicity by lactic dehydrogenase release. The note with it: human. Type of series: cell-based.
The target in series [6] is T1, adenosine deaminase from calf thymus (Bos taurus, UniProt P56658).
T1 construct: adenosine deaminase from calf thymus; from tissue; host or cells: calf thymus
T1 sequence (P56658 1-363): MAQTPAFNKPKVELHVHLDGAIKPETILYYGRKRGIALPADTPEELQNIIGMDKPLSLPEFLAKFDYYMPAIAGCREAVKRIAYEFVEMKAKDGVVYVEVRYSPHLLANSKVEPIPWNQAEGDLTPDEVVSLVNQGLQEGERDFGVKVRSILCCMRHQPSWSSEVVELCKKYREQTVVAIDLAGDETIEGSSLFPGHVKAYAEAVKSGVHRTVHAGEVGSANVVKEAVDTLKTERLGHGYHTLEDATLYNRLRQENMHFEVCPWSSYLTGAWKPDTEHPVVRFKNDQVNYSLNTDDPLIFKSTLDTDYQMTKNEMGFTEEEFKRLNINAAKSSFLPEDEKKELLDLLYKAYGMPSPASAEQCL
Nature of the series: deamination study with adenosine deaminase. Type of series: in vitro ADME.

The next series deals with HBV mutant rtL180M. Nature of the series: intracellular HBV DNA replication assay, rtL180M. The note with it: for EC50 / EC90: Hepatitis B virus. Format: cell-based, Hepatitis B virus. The method, then:
as §1

In series [7] the test system is lamivudine-resistant mutants including rtM204V/I±rtL180M. As to conditions: literature reference 50; cited from earlier work.
Series [8] deals with entecavir resistant HBV mutant (L180M+M204V+S202G). The series is described as follows: in vivo study in chimeric mice, entecavir resistant HBV mutant. The note with it: for viral load down / activity: mice, entecavir resistant HBV mutant (L180M+M204V+S202G); for antiviral activity: preliminary, chimeric mice infected with lamivudine-adeforvir-entecavir triple mutant. How it is done:
(§3) The FMCA monophosphate prodrug compound (15P/18P) was also tested in chimeric mice for activity.

Series [9] is described as follows: cytotoxicity / cellular toxicity (CC50). As to conditions: Table 2. How it is done: Drug susceptibility assays were performed as previously described. Cytotoxicity assays in PBM, CEM and Vero cells were conducted as previously described. […] These compounds were tested in a standard HBV assay in the laboratory of Dr. Brent Korba.
The next series concerns HBV. The series is described as follows: standard HBV assay (HBV Assay Results table). Type of series: cell-based, Hepatitis B virus. How it is done:
Drug susceptibility assays were performed as previously described. […]

The subject of series [10] is wild-type HBV. The series is described as follows: in vivo study in chimeric mice, wild-type HBV. How it is done:
as §3

For another series, the system named is WT HBV. The series is described as follows: anti-HBV activity against wild type in Huh7 cells (Table 2). Type of series: cell-based, Hepatitis B virus.
Excerpt: as §2

The test system of series [11] is HBV rtA181T and rtN236T mutations. The note with it: cited from earlier work.
Where [12] appears, read: rtN236T, compared with adefovir.

`C=C1[C@@H](n2cnc3c(N)ncnc32)[C@@H](F)[C@H](O)[C@H]1CO` [Compound 15/18, (+)-(1R,2R,3R,5R)-3-(6-amino-9H-9-purinyl)-2-fluoro-5-(hydroxymethyl)-4-methylenecyclopentan-1-ol]: the EC90 (in general, the concentration at which the effect reaches the 90% level) in the series with wild-type HBV [1] (Hepatitis B virus) stood at 4.5 µM; in series [4] (Hepatitis B virus) it was 5.5 µM; in series [5] (Hepatitis B virus) it was 4.6 µM; with HBV mutant rtL180M, 5.1 µM. Besides, the EC50 (usually the concentration at which the effect is half-maximal) in the series with wild-type HBV [1] (Hepatitis B virus, HBV-WT, inhibition of 50% of HBV DNA) was determined as 1.5 µM; in the series with HBV mutant rtM204I, 1 µM; in series [3] it was 0.67 µM; with HBV mutant rtM204V, 1.8 µM; in [4] (Hepatitis B virus), 2.2 µM; in series [5] (Hepatitis B virus), 1.7 µM. In the series with HBV mutant rtL180M, the EC50 amounted to 2.1 µM. Moreover, in the series with wild-type HBV [1] (wild-type HBV), the “fold more potent than adefovir in EC90” value was determined as 1.5 fold. Further, the “fold less potent than lamivudine” value in the series on wild-type HBV [1] (wild-type HBV, EC50) was determined as 7 fold. Also, the “cross-resistance to tested lamivudine-resistant mutants” value in series [2] is listed as “not cross-resistant”. Also, the “fold increase against lamivudine-resistant mutants” value in series [2] (rtM204V/I±rtL180M versus wild type) is on record as 1.0-1.2 fold. In addition, in series [3], the “antiviral potency against the entecavir mutant” value is “still maintain the antiviral potency”. Moreover, in series [5] (setting [12]), the “fold enhanced EC50 value” is recorded as 4.5 fold. Moreover, in series [5] (setting [12]), the “fold more favorable EC90 value” is 7.8 fold. In the series on HepG2 cells, the “mitochondrial toxicity (lactic dehydrogenase release)” value was “did not exhibit any significant toxicity up to 100 μM”. Further, the “stability against adenosine deaminase” value in series [6] is given as “completely stable”. Moreover, in the series with HBV mutant rtL180M (rtL180M), the “fold increased antiviral activity in EC90 versus lamivudine” value came to 4.3 fold.
Regarding `C=C1[C@H](CO)[C@@H](O)C[C@@H]1n1cnc2c(=O)[nH]c(N)nc21` [entecavir], in series [7], the “fold loss of activity against lamivudine-resistant mutants” value is listed as 8 fold. Besides, in [3], the EC50 turned out to be 1.2 µM. Moreover, the “viral load down / activity” value in [8] (listed as ETV) is “inactive; also recorded: not active”. For the same compound, in series [8], the “antiviral activity” value is “did not”.
For the compound `C=C1C(COP(=O)(N[C@@H](C)C(=O)OC)Oc2ccccc2)C(O)C(F)C1n1cnc2c(N)ncnc21` (stereo partly shown) [Compound 15P/18P], in [3], the IC50 (usually the point on the concentration scale where inhibition reaches its midpoint) was 0.05 µM and the “antiviral potency against the entecavir mutant” value is “still maintain the antiviral potency”. In addition, in series [9], the “cellular toxicity in comparison to parent 15/18” value is on record as “without significant increase of cellular toxicity”. In addition, in the series with HBV (prodrug versus parent 15/18), the “times more active than the compound where R1 and R1a are H” value is “more than 10 times”. This compound gave a viral load down in the series with wild-type HBV [10] of 2 log. Besides, in the series with WT HBV, the “fold enhancement of anti-HBV potency in EC50 versus parent 15/18” value is recorded as 7 fold and the “fold enhancement of anti-HBV potency in EC90 versus parent 15/18” value came out at 13 fold. In addition, in series [8], the “viral load down / activity” value is recorded as 1 log and the “antiviral activity” value was “exhibited antiviral activity”.
As for `Nc1ncnc2c1ncn2CCOCP(=O)(O)O` [adefovir, reference compound], the EC90 in the series on wild-type HBV [1] (HBV-WT, inhibition of 90% of HBV DNA, read-out: EC90) was 7.1 µM; in series [4] (double mutant rtL180M/rtM204V, read-out: EC90), 8.5 µM. For the same compound, the “increase in median effective concentration” value in series [11] is “two-fold to nine-fold”. Besides, the EC50 in series [4] (double mutant rtL180M/rtM204V, read-out: EC50) amounted to 2.2 µM.
Regarding `Nc1ccn([C@@H]2CS[C@H](CO)O2)c(=O)n1` [lamivudine, reference compound], the EC50 in the series on HBV (Hepatitis B virus, read-out: Control: 3TC EC50) came out at 2420 µM. Also, the “mitochondrial toxicity (lactic dehydrogenase release)” value in the series with HepG2 cells is “did not exhibit any significant toxicity up to 100 μM”. In the series on HBV mutant rtL180M, this compound had an EC50 of 1.5 µM and an EC90 of 22 µM.
The compound “(+)-(1R,2R,3R,5R)-3-(6-amino-9H-9-purinyl)-2-fluoro-5-(hydroxymethyl)-4-methylenecyclopentan-1-ol [Compound 15/18]” gave an IC50 in series [3] of 0.054 µM.
